Among the test systems are NCI-H226 lung; CAKI-1 renal; DU-145 prostate; COLO 205 colon; OVCAR-4 ovarian; 786-0 renal; SF-268 CNS; BT-549 breast; HOP-92 NSCLC; EKVX NSCLC; HT29 colon; IGROV1 ovarian; UO-31 renal; A498 renal.
Assay in all cases: NCI-60 cell line screen, 48 h

Consider five compounds from PubChem BioAssay (NCI).

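Dose response: 5 concentrations. Exposure: 48 h. Format: 96-well plates. Endpoint: linear interpolation; highest concentration if not reached. TGI marks complete inhibition of growth.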

Take `Cc1nc2cn3c(c2c(=O)[nH]1)CCCCC3`: the TGI in the experiment with NCI-H226 lung, in the experiment on CAKI-1 renal, with DU-145 prostate, in the experiment on COLO 205 colon, with OVCAR-4 ovarian and in the experiment with 786-0 renal was greater than 100 µM each time. Also, the TGI in the experiment with SF-268 CNS, in the experiment on BT-549 breast, with HOP-92 NSCLC, with EKVX NSCLC, in the experiment on HT29 colon and with IGROV1 ovarian was greater than 100 µM throughout. Moreover, the TGI in the experiment on UO-31 renal and with A498 renal was greater than 100 µM in each case.

Turning to `Nc1nc(Cl)cc(NCC2(CO)CCCCC2)n1`, the TGI with NCI-H226 lung, in the experiment on CAKI-1 renal, in the experiment on DU-145 prostate, in the experiment on COLO 205 colon, with OVCAR-4 ovarian and in the experiment on 786-0 renal was greater than 100 µM throughout. The TGI in the experiment with SF-268 CNS, in the experiment with BT-549 breast, in the experiment on HOP-92 NSCLC, with EKVX NSCLC, with HT29 colon and in the experiment with IGROV1 ovarian was greater than 100 µM each time. Besides, the TGI in the experiment with UO-31 renal and in the experiment with A498 renal was greater than 100 µM each time.

As for `COC(=O)C1OC(O[C@H]2CC[C@]3(C)[C@H]4CC=C5[C@@H]6CC(C)(C)CC[C@]6(C(=O)OC)CC[C@@]5(C)[C@]4(C)CC[C@H]3C2(C)C)C(O)C(O)C1O` (stereo not given in full), the TGI with NCI-H226 lung amounted to 37 µM; in the experiment with CAKI-1 renal, 21.8 µM; in the experiment with DU-145 prostate it was 27.9 µM; in the experiment with COLO 205 colon, 29.9 µM; in the experiment with OVCAR-4 ovarian, 30.6 µM; in the experiment with 786-0 renal it was 19.2 µM. Further, the TGI stood at 39.3 µM in the experiment on SF-268 CNS; 32.1 µM with BT-549 breast; 34.7 µM in the experiment on HOP-92 NSCLC; 29 µM in the experiment on EKVX NSCLC; 22.9 µM in the experiment with HT29 colon; 37.4 µM in the experiment on IGROV1 ovarian. The TGI in the experiment on UO-31 renal was found to be 33.4 µM; with A498 renal it was 34.3 µM.

In the case of `CN(C)c1ccc(/C=C/C(=O)c2cc(C(C)(C)C)c(O)c(C(C)(C)C)c2)cc1`, the TGI in the experiment with NCI-H226 lung was greater than 65.9 µM; in the experiment on CAKI-1 renal, greater than 58.5 µM; in the experiment on DU-145 prostate it was 6.8 µM; in the experiment with COLO 205 colon, 2.65 µM; in the experiment on OVCAR-4 ovarian it was greater than 100 µM; in the experiment with 786-0 renal it was 8.03 µM. The TGI was greater than 52.1 µM in the experiment with SF-268 CNS; greater than 100 µM in the experiment on BT-549 breast; greater than 100 µM in the experiment on HOP-92 NSCLC; greater than 100 µM with EKVX NSCLC; greater than 30.2 µM with HT29 colon; greater than 100 µM in the experiment on IGROV1 ovarian. The TGI with UO-31 renal and in the experiment on A498 renal was greater than 100 µM each time.

Regarding `COc1ccccc1C1C2=C(COC2=O)Oc2cc3c(cc21)OCO3` (stereo not given), the TGI with NCI-H226 lung was greater than 100 µM; in the experiment on CAKI-1 renal, greater than 100 µM; with DU-145 prostate, greater than 42.4 µM; in the experiment with COLO 205 colon it was 14.2 µM; in the experiment on OVCAR-4 ovarian, greater than 100 µM; with 786-0 renal, 28 µM. Further, the TGI in the experiment with SF-268 CNS is 85.8 µM; with BT-549 breast, greater than 100 µM; with HOP-92 NSCLC, 97.7 µM; in the experiment on EKVX NSCLC it was greater than 42.8 µM; in the experiment with HT29 colon, 8.53 µM; with IGROV1 ovarian it was greater than 100 µM. The TGI was greater than 33.5 µM with UO-31 renal and 15.4 µM with A498 renal.
